The source of these data is patent US12129266B2, “Substituted pyrazolo[1,5-a]pyridine compound, composition containing the same and use thereof” (Shenzhen TargetRx, Inc., priority 2018, dated 2024).

Structures are written as SMILES.

Data set [1] can be described thus: Metabolic stability evaluation, liver microsome assay (HLM). Format: in vitro ADME. The note with it: pH 7.4, human liver microsomes 0.5 mg/mL, compound 1 μM, NADPH, 37° C.; for half-life at 1 μM: read-out: HLM t1/2. The protocol: (§1) Microsome assay: human liver microsomes (HLM): 0.5 mg/mL, Xenotech; rat liver microsomes (RLM): 0.5 mg/mL, Xenotech; mice liver microsomes (MLM): 0.5 mg/mL, Xenotech; coenzyme (NADPH/NADH): 1 mM, Sigma Life Science; magnesium chloride: 5 mM, 100 mM phosphate buffer (pH is 7.4).
(§2) Preparation of stock solution: a certain amount of powder of the example compound and the reference compound were accurately weighed, and dissolved to 5 mM with DMSO, respectively.
(§3) Preparation of phosphate buffer (100 mM, pH7.4): Pre-formulated 150 mL 0.5 M potassium dihydrogen phosphate and 700 mL 0.5 M dipotassium hydrogen phosphate solution were mixed, then the pH of the mixture was adjusted to 7.4 with 0.5 M dipotassium hydrogen phosphate solution. Before use, 5-fold dilution was made with ultra-pure water, and magnesium chloride was added to afford phosphate buffer (100 mM), which containing 100 mM potassium phosphate, 3.3 mM magnesium chloride, pH is 7.4.
(§4) NADPH regeneration system solution (containing 6.5 mM NADP, 16.5 mM G-6-P, 3 U/mL G-6-P D, 3.3 mM magnesium chloride) was prepared and placed on wet ice before use.
(§5) Preparation of stop solution: Acetonitrile solution containing 50 ng/mL propranolol hydrochloride and 200 ng/mL tolbutamide (internal standard). 25057.5 μL phosphate buffer (pH 7.4) was taken into a 50 mL centrifuge tube, and 812.5 μL human liver microsome was added, mixed well to afford liver microsome diluent with a protein concentration of 0.625 mg/mL. 25057.5 μL phosphate buffer (pH 7.4) was taken into a 50 mL centrifuge tube, and 812.5 μL SD rat liver microsome was added, respectively, mixed well to afford liver microsome diluent with a protein concentration of 0.625 mg/mL. 25057.5 μL phosphate buffer (pH 7.4) was taken into a 50 mL centrifuge tube, and 812.5 μL mice liver microsome was added, respectively, mixed well to afford liver microsome diluent with a protein concentration of 0.625 mg/mL.
(§6) Incubation of the sample: The stock solutions of the corresponding compounds were diluted to 0.25 mM with an aqueous solution containing 70% acetonitrile as working solutions for use. 398 μL of human liver microsome or rat liver microsome or mice liver microsome diluent was taken and added to a 96-well incubation plate (N=2), respectively, and 2 μL of 0.25 mM working solution was then added respectively, and mixed well.
(§7) Determination of metabolic stability: 300 μL of pre-chilled stop solution was added to each well of a 96-well deep well plate and the plate was placed on ice as a stop plate. The 96-well incubation plate and NADPH regeneration system were placed in a 37° C. water bath box, shook at 100 rpm, and pre-incubated for 5 min. 80 μL of incubation solution was taken from each well of the incubation plate and added to the stop plate, mixed well, and 20 μL of NADPH regeneration system solution was supplemented, the resulted solution was considered as sample at 0 min. Then 80 μL of NADPH regeneration system solution was added to each well of the incubation plate to start the reaction and started timing. The reaction concentration of the corresponding compound is 1 μM, and the protein concentration is 0.5 mg/mL. 100 μL reaction solution was taken at 10, 30, 90 min of reaction, respectively, and added into stop plate, the reaction was stopped with 3 min vortex. The stop plate was centrifuged at 5000×g, 4° C. for 10 min. 100 μL of supernatant was taken to a 96-well plate where 100 μL of distilled water was added in advance, mixed well, sample analysis was subjected by LC-MS/MS.
(§8) Data analysis: LC-MS/MS system was used to detect peak area of corresponding compound and internal standard, peak area ratio of compound and internal standard was calculated.
(§9) [formula] t1/2(min); CLint(μL/min/mg).

A short description of data set [2]: Metabolic stability evaluation, liver microsome assay (RLM). Format: in vitro ADME, SD rat. The settings on record: Sprague-Dawley, pH 7.4, rat liver microsomes 0.5 mg/mL, compound 1 μM, NADPH, 37° C.; for half-life at 1 μM: read-out: RLM t1/2. The protocol:
as §1, §2, §3, §4, §5, §6, §7, §8, §9
(Liver microsomes are vesicles of endoplasmic reticulum, rich in cytochrome P450 enzymes.)

Data set [3] can be described thus: Metabolic stability evaluation, liver microsome assay (MLM). Format: in vitro ADME. The note with it: mouse, mouse liver microsomes, pH 7.4, mice liver microsomes 0.5 mg/mL, compound 1 μM, NADPH, 37° C.; for half-life at 1 μM: read-out: MLM t1/2. The method, then: as §1, §2, §3, §4, §5, §6, §7, §8, §9
In the next data set the test system is Ba/F3 parental. Briefly: cells. The settings on record: Mus musculus, BaF3, 72 h, read-out: IC50 (nM) Ba/F3 parental.
A further data set concerns Ba/F3 KIF5B-RET. Briefly: Cytotoxicity assay (CellTiter-Glo), Ba/F3 KIF5B-RET. Type of data set: cell-based. The note with it: Mus musculus, BaF3; cell viability, 72 hours, CTG. On the technique in general: ATP-based viability assays read luminescence as a measure of living cells.
In a further data set the test system is Ba/F3 KIF5B-RET^V804M. Briefly: Cytotoxicity assay (CellTiter-Glo), Ba/F3 KIF5B-RET V804M. The settings on record: Mus musculus, BaF3; cell viability, 72 hours, CTG. Type of data set: cell-based.

For orientation: microsomal CLint means the capacity of the preparation to metabolise the compound, expressed as a volume cleared per time. A high value points to faster metabolism. Turning to `[2H]C([2H])([2H])Oc1ccc(CN2C3CC2CN(c2ccc(-c4cc(-c5cnn(C)c5)cn5ncc(C#N)c45)cn2)C3)cn1` [Example 1, 4-(6-(6-((6-(methoxy-d3)pyridin-3-yl)methyl)-3,6-diazabicyclo[3.1.1]heptan-3-yl)pyridin-3-yl)-6-(1-methyl-1H-pyrazol-4-yl)pyrazolo[1,5-a]pyridine-3-carbonitrile], the microsomal CLint at 1 μM in data set [1] was determined as 87.5 µL/min/mg; in data set [2], 51.5 µL/min/mg; in data set [3] it was 73.2 µL/min/mg. Moreover, the half-life at 1 μM in data set [1] is 15.8 min; in data set [2], 26.9 min; in data set [3] it was 18.9 min.

On to `[2H]C([2H])(c1ccc(OC)nc1)N1C2CC1CN(c1ccc(-c3cc(-c4cnn(C)c4)cn4ncc(C#N)c34)cn1)C2` [Example 2, 4-(6-(6-((6-methoxypyridin-3-yl)methyl-d2)-3,6-diazabicyclo[3.1.1]heptan-3-yl)pyridin-3-yl)-6-(1-methyl-1H-pyrazol-4-yl)pyrazolo[1,5-a]pyridine-3-carbonitrile], for which the microsomal CLint at 1 μM in data set [1] was 105 µL/min/mg; in data set [2], 35.1 µL/min/mg; in data set [3] it was 78.3 µL/min/mg. In addition, the half-life at 1 μM in data set [1] worked out at 13.2 min; in data set [2], 39.5 min; in data set [3], 17.7 min.

As for `[2H]C([2H])([2H])Oc1ccc(C([2H])([2H])N2C3CC2CN(c2ccc(-c4cc(-c5cnn(C)c5)cn5ncc(C#N)c45)cn2)C3)cn1` [Example 3, 4-(6-(6-((6-(methoxy-d3)pyridin-3-yl)methyl-d2)-3,6-diazabicyclo[3.1.1]heptan-3-yl)pyridin-3-yl)-6-(1-methyl-1H-pyrazol-4-yl)pyrazolo[1,5-a]pyridine-3-carbonitrile], the values for the microsomal CLint at 1 μM in data set [1], in data set [2] and in data set [3] were 85.6 µL/min/mg, 55.3 µL/min/mg and 68.8 µL/min/mg, respectively. Moreover, the half-life at 1 μM was 16.2 min in data set [1], 25.1 min in data set [2] and 20.2 min in data set [3].

Regarding `[2H]C([2H])([2H])Oc1ccc(CN2C3CC2CN(c2ccc(-c4cc(-c5cnn(C([2H])([2H])[2H])c5)cn5ncc(C#N)c45)cn2)C3)cn1` [Example 4, 4-(6-(6-((6-(methoxy-d3)pyridin-3-yl)methyl)-3,6-diazabicyclo[3.1.1]heptan-3-yl)pyridin-3-yl)-6-(1-(methyl-d3)-1H-pyrazol-4-yl)pyrazolo[1,5-a]pyridine-3-carbonitrile], the figures for the microsomal CLint at 1 μM in data set [1], in data set [2] and in data set [3] were 97.9 µL/min/mg, 49.1 µL/min/mg and 63.5 µL/min/mg, respectively. In addition, the half-life at 1 μM in data set [1] was 14.2 min; in data set [2] it was 28.2 min; in data set [3], 21.8 min.

For the compound `[2H]C([2H])(c1ccc(OC)nc1)N1C2CC1CN(c1ccc(-c3cc(-c4cnn(C([2H])([2H])[2H])c4)cn4ncc(C#N)c34)cn1)C2` [Example 5, 4-(6-(6-((6-methoxypyridin-3-yl)methyl-d2)-3,6-diazabicyclo[3.1.1]heptan-3-yl)pyridin-3-yl)-6-(1-(methyl-d3)-1H-pyrazol-4-yl)pyrazolo[1,5-a]pyridine-3-carbonitrile], the microsomal CLint at 1 μM in data set [1] came out at 83.2 µL/min/mg; in data set [2] it was 37.9 µL/min/mg; in data set [3], 75.8 µL/min/mg. Besides, the half-life at 1 μM in data set [1] came out at 16.7 min; in data set [2], 36.6 min; in data set [3], 18.3 min.

For `[2H]C([2H])([2H])Oc1ccc(C([2H])([2H])N2C3CC2CN(c2ccc(-c4cc(-c5cnn(C([2H])([2H])[2H])c5)cn5ncc(C#N)c45)cn2)C3)cn1` [Example 6, 4-(6-(6-((6-(methoxy-d3)pyridin-3-yl)methyl-d2)-3,6-diazabicyclo[3.1.1]heptan-3-yl)pyridin-3-yl)-6-(1-(methyl-d3)-1H-pyrazol-4-yl)pyrazolo[1,5-a]pyridine-3-carbonitrile], the microsomal CLint at 1 μM in data set [1] came to 112 µL/min/mg; in data set [2], 47.3 µL/min/mg; in data set [3], 65 µL/min/mg. The half-life at 1 μM came to 12.4 min in data set [1], 29.3 min in data set [2] and 21.3 min in data set [3].

On to `[2H]C([2H])([2H])n1cc(-c2cc(-c3ccc(N4CC5CC(C4)N5Cc4ccc(OC)nc4)nc3)c3c(C#N)cnn3c2)cn1` [Example 7, 4-(6-(6-((6-methoxypyridin-3-yl)methyl)-3,6-diazabicyclo[3.1.1]heptan-3-yl)pyridin-3-yl)-6-(1-(methyl-d3)-1H-pyrazol-4-yl)pyrazolo[1,5-a]pyridine-3-carbonitrile], for which the microsomal CLint at 1 μM in data set [1] stood at 11.1 µL/min/mg; in data set [2] it was 11.3 µL/min/mg; in data set [3], 76 µL/min/mg. The half-life at 1 μM was found to be 124 min in data set [1], 122 min in data set [2] and 18.2 min in data set [3].

Turning to `[2H]C([2H])(c1ccc(OC)nc1)N1C2CC1CN(c1ccc(-c3cc(OC[C@H]4CNCCO4)cn4ncc(C#N)c34)cn1)C2` [Example 8], the intrinsic clearance (microsomal CLint) at 1 μM in data set [1] is 10.6 µL/min/mg; in data set [2], 5.3 µL/min/mg; in data set [3], 5.8 µL/min/mg. For the same compound, the half-life at 1 μM was found to be 131 min in data set [1], 263 min in data set [2] and 237 min in data set [3]. For the same compound, the IC50 with Ba/F3 parental was 3360 nM.

In the case of `[2H]C([2H])(c1ccc(OC)nc1)N1C2CC1CN(c1ccc(-c3cc(OCC(C)(C)O)cn4ncc(C#N)c34)cn1)C2` [Example 11, 6-(2-hydroxy-2-methylpropoxy)-4-(6-(6-((6-methoxypyridin-3-yl)methyl-d2)-3,6-diazabicyclo[3.1.1]heptan-3-yl)pyridin-3-yl)pyrazolo[1,5-a]pyridine-3-carbonitrile], the intrinsic metabolic clearance (microsomal CLint) at 1 μM in data set [1] is 96.2 µL/min/mg; in data set [2] it was 11.7 µL/min/mg; in data set [3], 44.8 µL/min/mg. Also, the half-life at 1 μM in data set [1] was 14.4 min; in data set [2] it was 118 min; in data set [3] it was 30.9 min. Further, the IC50 in the data set with Ba/F3 KIF5B-RET amounted to 19.1 nM; in the data set with Ba/F3 KIF5B-RET^V804M it was 40.5 nM; in the data set with Ba/F3 parental, 3510 nM.

With `[2H]C([2H])([2H])Oc1ccc(CN2C3CC2CN(c2ccc(-c4cc(OCC(C)(C)O)cn5ncc(C#N)c45)cn2)C3)cn1` [Example 12, 6-(2-hydroxy-2-methylpropoxy)-4-(6-(6-((6-(methoxy-d3)pyridin-3-yl)methyl)-3,6-diazabicyclo[3.1.1]heptan-3-yl)pyridin-3-yl)pyrazolo[1,5-a]pyridine-3-carbonitrile], the intrinsic metabolic clearance (microsomal CLint) at 1 μM came out at 93.1 µL/min/mg in data set [1], 10.1 µL/min/mg in data set [2] and 44.9 µL/min/mg in data set [3]. The half-life at 1 μM in data set [1] turned out to be 14.9 min; in data set [2], 137 min; in data set [3], 30.8 min. Moreover, the IC50 is 16 nM in the data set with Ba/F3 KIF5B-RET, 45.2 nM in the data set on Ba/F3 KIF5B-RET^V804M and 5930 nM in the data set on Ba/F3 parental.
